The assay deals with broiler chickens. Kind of assay: Effect of iron source and level on hemoglobin, hematocrit, performance and iron bioavailability (slope-ratio) of iron-depleted broiler chicks. The assay is classed as in vivo. To be noted: for Efficiency / Gain / Hematocrit / Intake: from day 7. As to the method:
Experiments were conducted to determine the effect of trace mineral level and source on hemoglobin, hematocrit and performance of broiler chickens. Bioavailability of iron was determined by the common-intercept multiple linear regression (slope-ratio) method (S. Aoyagi and D. H. Baker, Nutritional evaluation of a copper-methionine complex for chicks, Poult. Sci. 1993; 72:2309-15). For the first 7 days, chicks were fed a semi-purified diet based on dextrose, corn starch and casein (see Table 1), but with a low level of corn in order to encourage food intake. The calculated iron concentration was 25 ppm and the adaptation period was done in order to deplete iron stores received via the egg.
Beginning on day 7, chicks were provided experimental diets containing the three iron sources added to the basal diet as tabulated below. The three iron sources are commercial grade iron sulphate (FeSO4) (Comparative Example A), siderite (Comparative Example B) and agglomerated particles of starch and crystallites of iron(II) carbonate (Example 1; in accordance with the disclosure) (see Table 2). The agglomerated particles were prepared by grinding siderite to a d90 value below 5 subsequently mixing the ground iron(II) carbonate, starch and water, and spray drying the dispersion. The resulting agglomerated particles have a mean particle size of […]; the content of iron(II) carbonate is 36.94 wt %, based on the total weight of the agglomerated particles.
Birds were raised in Petersime batteries and all metal (feeders, waterers, raised wire floors) in contact with the birds was stainless steel. Water was deionized.
Statistical Analysis: Hemoglobin, hematocrit and performance data were regressed against dietary iron level for each source to obtain linear dose response relationships and bioavailability was calculated from the ratio of the slopes to that of FeSO4. Data (excluding the basal treatment) was also analyzed as a […]×4 level factorial arrangement of treatments. Slope ratios were calculated using the 0, 15, and 25 ppm added levels.

[1] abbreviates: 15 ppm added iron in basal diet.
The mark [2] stands for this setting: 25 ppm added iron in basal diet.

Marks after values point to notes of the source that are not given here.

As to `O=S(=O)([O-])[O-].[Fe+2]` [Comparative Example A, iron sulphate (FeSO4)], under setting [1], the Efficiency was 0.59 gain/feed, the Gain came to 523.9 g/chick, the Hematocrit is listed as 38.3% and the Intake turned out to be 888.2 g/chick. Moreover, under setting [2], the Efficiency is reported as 0.62 gain/feed, the Gain amounted to 548.5 g/chick, the Hematocrit turned out to be 37.2% and the Intake is given as 884.0 g/chick. For the same compound, for the setting “across all levels”, the “Efficiency, main effect mean for iron source” value turned out to be 0.61 gain/feed; the “Gain, main effect mean for iron source” value was 531.8 g/chick; the “Hematocrit, main effect mean for iron source” value is 37.3%; the “Intake, main effect mean for iron source” value is 867.5 ^a g/chick.

Source of the values: US20200146314A1, “TRACE MINERAL COMPOSITION” (Nutreco IP Assets B.V., priority 2017, published 2020).
